# Reference: article PMC12190436, “5-Ene-2-arylaminothiazol-4(5H)-ones Induce Apoptosis in Breast Cancer Cells” (Cells, 2025)
# Counter-ions that a name gives are not always drawn. Like-named read-outs stand apart in the source and are kept apart here.
# Assays:
# [1] = system: MCF-7 cells; test: Scratch assay (cell migration); format: cell-based, human; details: 24 h
# Protocol: To assess the effects of the tested compounds on cell migration, the scratch assay method was applied [34]. Cells were seeded in 24-well plates at 2 × 10^5 cells per well in 1 mL medium and incubated overnight. Afterwards, they were left in an incubator at 37 °C for 24 h to attach to the wells. The next day, scratches were made using a 200 µL pipette tip in confluent monolayers. […] Images were obtained by utilizing a Nikon ECLIPSE Ti microscope (Nikon, Tokyo, Japan) after 0, 24, and 48 h. The area of the scratches was measured manually via ImageJ software version 1.54k (Bethesda, MD, USA).
# The MCF-7 breast cancer cells were treated for 24 h with the tested compounds in concentrations of 5, 2.5, and 1 µM and doxorubicin hydrochloride in concentrations of 1 and 0.5 µM.
# [2] = system: MCF-7 cells; test: JC-1 mitochondrial membrane potential, flow cytometry; format: cell-based, human; details: 5 µM, 24 h, MCF-7, JC-1
# Protocol: Lipophilic fluorochrome JC-1 (5,5′,6,6′-tetrachloro-1,1′,3,3′-tetraethylbenzimidazolcarbocyanine iodide) (BD Biosciences, San Diego, CA, USA) was applied to determine the novel structures’ effects on the MMP [35]. MCF-7 cells were seeded on 6-well plates at 5 × 10^6 cells per well, followed by incubation for 24 h. Afterwards, the cells were treated for 24 h with new 4-thiazolidinone derivatives (Les-6416, Les-6418, Les-6381, Les-6423, and Les-6424) in a concentration of 5 µM and the reference drug doxorubicin hydrochloride in a concentration of 0.5 µM. Then, cells were collected at a concentration of 1 × 10^6 cells/mL and washed two times with PBS. Next, 0.5 mL of the pre-prepared JC-1 working solution was added to each sample in accordance with the instructions of the manufacturer, followed by incubation at 37 °C for 15 min in a CO2 incubator. After that, an assay buffer was added to each sample to wash the cells several times. Afterwards, 0.5 mL from each sample was transferred to the tubes for immediate assessment using a BD FACSCanto II flow cytometer (Becton Dickinson Biosciences, San Jose, CA, USA). For each sample, 1 × 10^4 events were analyzed. The obtained results were investigated by applying FACSDiva software Version 6.1.3 (BD Biosciences Systems, San Jose, CA, USA).
# A critical determinant of the induction of the intrinsic pathway of apoptosis is the decrease in mitochondrial membrane potential (ΔΨm). To investigate the effects of the novel 4-thiazolidinones on mitochondrial membrane potential, flow cytometry analysis of JC-1 dye was applied. JC-1 is a carbocyanine lipophilic cationic fluorochrome whose fluorescence depends on the MMP. Red fluorescence is emitted in viable cells with healthy mitochondria; however, apoptotic or necrotic cells with damaged mitochondria emit green fluorescence.
# [3] = system: MDA-MB-435; format: cell-based; details: for Growth %: MDA-MB-435, 10 μM, one dose, 48 h
# [4] = system: NCI-H522; format: cell-based
# [5] = system: UACC-62; format: cell-based
# [6] = system: NCI-H460; format: cell-based; details: for Growth %: NCI-H460, 10 μM, one dose, 48 h
# [7] = system: SF-295; format: cell-based; details: for Growth %: SF-295, 10 μM, one dose, 48 h
# [8] = system: caspase 10; test: FLICA caspase-10 activity, flow cytometry; format: cell-based, human; details: 5 µM, 24 h, MCF-7
# Protocol: (§1) To determine the effects of the novel compounds on the caspases-3/7, caspase-8, caspase-9, and caspase-10 activity, the FLICA Caspase-3/7 Assay Kit, FLICA Caspase-8 Assay Kit, FLICA Caspase-9 Assay Kit, and FLICA Caspase-10 Assay Kit were applied (ImmunoChemistry Technologies, Bloomington, MN, USA). MCF-7 cells were seeded on 6-well plates (1 × 10^5 cells per well) and incubated for 24 h. Afterwards, they were treated for 24 h with tested compounds (Les-6416, Les-6418, Les-6381, Les-6423, and Les-6424) in a concentration of 5 µM and the reference drug doxorubicin hydrochloride in a concentration of 0.5 µM. Next, cells were amassed and washed two times with cold PBS, followed by resuspension in an Apoptosis Wash Buffer to a final concentration of 5 × 10^5 cells/mL. Afterwards, 290 µL of the prepared cell suspensions were transferred into tubes, followed by the addition of 10 µL of FLICA solution, prepared immediately before use, to each sample and incubated for an hour at 37 °C. Next, cells were washed two times with 2 mL of Apoptosis Wash Buffer, provided in the kit, centrifuged, and resuspended in 300 µL of the buffer. Prepared samples were assessed by a BD FACSCanto II flow cytometer (Becton Dickinson Biosciences, San Jose, CA, USA). For each sample, 1 × 10^4 events were analyzed. […]
# [9] = system: caspase 9; test: FLICA caspase-9 activity, flow cytometry; format: cell-based, human; details: 5 µM, 24 h, MCF-7
# Protocol: as §1
# [10] = system: MDA-MB-468; format: cell-based
# [11] = system: panel of 60 cancer cell lines; format: cell-based; details: for Mean Growth, % / Range of Growth, % / Positive Cytostatic Effect / Positive Cytotoxic Effect: 10 μM; for Mean Growth, % / Range of Growth, %: one dose; for Positive Cytostatic Effect: number of cell lines with GP from 0 to 50 / total number of cell lines; for Positive Cytotoxic Effect: number of cell lines with GP of <0 / total number of cell lines; for LC50: read-out: MG_MID_60 LC50
# [12] = system: HL-60(TB); format: cell-based
# [13] = system: SK-MEL-5; format: cell-based
# [14] = system: MCF7; format: cell-based
compound,measurement,setting,value
"COc1cccc2c1C(=O)c1c(O)c3c(c(O)c1C2=O)C[C@@](O)(C(=O)CO)C[C@@H]3O[C@H]1C[C@H](N)[C@H](O)[C@H](C)O1 [DOX, Doxorubicin hydrochloride, reference compound]",Closure of the gap area,[1]; 0.5 µM,25.50 ± 20.51%
"COc1ccc(C=C2SC(Nc3cc(OC)c(OC)c(OC)c3)=NC2=O)cc1 [Les-6381, 5-(4-Methoxybenzylidene)-2-((3,4,5-trimethoxyphenyl)amino)thiazol-4(5H)-one]","Reduced ΔΨm, cell population",[2],27.95 ± 1.43%
"COc1cc(NC2=NC(=O)C(=Cc3ccc4cc[nH]c4c3)S2)cc(OC)c1OC [Les-6416, 5-((1H-Indol-6-yl)methylene)-2-((3,4,5-trimethoxyphenyl)amino)thiazol-4(5H)-one]",Growth %,[3],−33.26%
same,Growth %,"[4]; NCI-H522, 10 μM, one dose, 48 h",3.77%
same,Growth %,"[5]; UACC-62, 10 μM, one dose, 48 h",18.03%
same,Growth %,[6],17.93%
same,Growth %,[7],5.01%
same,cells with active caspase 10,[8],43.23 ± 2.85%
same,"Reduced ΔΨm, cell population",[2],33.80 ± 0.85%
same,cells with active caspase 9,[9],41.90 ± 6.89%
same,Growth %,"[10]; MDA-MB-468, 10 μM, one dose, 48 h",1.33%
same,Closure of the gap area,[1]; 1 µM,21.00 ± 7.07%
same,"Mean Growth, %",[11]; 48 h,39.56%
same,"Range of Growth, %",[11]; 48 h,−33.26–97.05%
same,Positive Cytostatic Effect,[11],38/58
same,Positive Cytotoxic Effect,[11],2/58
same,Growth %,"[12]; HL60(TB), 10 μM, one dose, 48 h",15.10%
same,Growth %,"[13]; SK-Mel-5, 10 μM, one dose, 48 h",−4.74%
same,Growth %,"[14]; MCF-7, 10 μM, one dose, 48 h",6.76%
"COc1cc(NC2=NC(=O)C(=Cc3c[nH]c4ccccc34)S2)cc(OC)c1OC [Les-6418, 5-((1H-Indol-3-yl)methylene)-2-((3,4,5-trimethoxyphenyl)amino)thiazol-4(5H)-one]",GI50,"[3]; Homo sapiens, MDA-MB-435, 48 h",0.28 µM
same,LC50,"[3]; Homo sapiens, MDA-MB-435, 48 h",14.2 µM
same,Growth %,[3],−77.11%
same,TGI,"[3]; MDA-MB-435, 48 h",0.940 µM
same,SI (TGI),"[3]; MDA-MB-435, MG_MID_60/value",19.8
same,GI50,"[4]; Homo sapiens, NCI-H522, 48 h",0.403 µM
same,CC50,"[4]; Homo sapiens, NCI-H522, 48 h, read-out: LC50 (the source's name)",46 µM
same,TGI,"[4]; NCI-H522, 48 h",5.56 µM
same,SI (TGI),"[4]; NCI-H522, MG_MID_60/value",3.34
same,GI50,"[5]; Homo sapiens, UACC-62, 48 h",4.75 µM
same,CC50,"[5]; Homo sapiens, UACC-62, 48 h, read-out: LC50 (the source's name)",48.3 µM
same,TGI,"[5]; UACC-62, 48 h",19.7 µM
same,SI (TGI),"[5]; UACC-62, MG_MID_60/value",0.94
same,GI50,"[6]; Homo sapiens, NCI-H460, 48 h",2.1 µM
same,LC50 (50% lethal concentration),"[6]; Homo sapiens, NCI-H460, 48 h",92 µM
same,Growth %,[6],−77.59%
same,TGI,"[6]; NCI-H460, 48 h",14.3 µM
same,SI (TGI),"[6]; NCI-H460, MG_MID_60/value",1.30
same,GI50,"[7]; Homo sapiens, SF-295, 48 h",2.27 µM
same,CC50,"[7]; Homo sapiens, SF-295, 48 h, read-out: LC50 (the source's name)",40.9 µM
same,Growth %,[7],−73.38%
same,TGI,"[7]; SF-295, 48 h",13.4 µM
same,SI (TGI),"[7]; SF-295, MG_MID_60/value",1.39
same,"Reduced ΔΨm, cell population",[2],22.35 ± 3.06%
same,GI50,"[10]; Homo sapiens, MDA-MB-468, 48 h",0.657 µM
same,CC50,"[10]; Homo sapiens, MDA-MB-468, 48 h, read-out: LC50 (the source's name)",34.3 µM
same,TGI,"[10]; MDA-MB-468, 48 h",6.23 µM
same,SI (TGI),"[10]; MDA-MB-468, MG_MID_60/value",2.99
same,"Mean Growth, %",[11]; 48 h,−43.64%
same,"Range of Growth, %",[11]; 48 h,−88.00–14.92%
same,Positive Cytostatic Effect,[11],7/59
same,Positive Cytotoxic Effect,[11],52/59
same,LC50,"[11]; Homo sapiens, 48 h, full panel mean, 48 h",56.6 µM
same,GI50,"[11]; Homo sapiens, CCRF-CEM, HL-60(TB), SR, NCI-H522, HT29, KM12, MDA-MB-435, OVCAR-3, ACHN, BT-549, MDA-MB-468, read-out: GI50, submicromolar concentration range",0.28 to 0.98 µM
same,GI50,"[11]; Homo sapiens, full panel mean, 48 h, read-out: MG_MID_60 GI50",3.27 µM
same,MG_MID_60 TGI,"[11]; full panel mean, 48 h",18.6 µM
same,LC50,"[11]; full panel mean, 48 h",56.5 µM
same,SI against certain types of cancer,[11]; subpanel selectivity indices at studied dose–response parameters,0.71–1.60
same,TGI,"[12]; HL-60(TB), 48 h",11.1 µM
same,SI (TGI),"[12]; HL-60(TB), MG_MID_60/value",1.68
same,GI50,"[12]; Homo sapiens, HL-60(TB), 48 h",0.855 µM
same,CC50,"[12]; Homo sapiens, HL-60(TB), 48 h, read-out: LC50 (the source's name)",> 100 µM
same,GI50,"[13]; Homo sapiens, SK-MEL-5, 48 h",2.46 µM
same,CC50,"[13]; Homo sapiens, SK-MEL-5, 48 h, read-out: LC50 (the source's name)",39.1 µM
same,TGI,"[13]; SK-MEL-5, 48 h",14.1 µM
same,SI (TGI),"[13]; SK-MEL-5, MG_MID_60/value",1.32
same,GI50,"[14]; Homo sapiens, MCF7, 48 h",1.79 µM
same,CC50,"[14]; Homo sapiens, MCF7, 48 h, read-out: LC50 (the source's name)",44.7 µM
same,TGI,"[14]; MCF7, 48 h",11.9 µM
same,SI (TGI),"[14]; MCF7, MG_MID_60/value",1.56
"COc1cc(NC2=NC(=O)C(=Cc3cccs3)S2)cc(OC)c1OC [Les-6423, 5-(Thiophen-2-ylmethylene)-2-((3,4,5-trimethoxyphenyl)amino)thiazol-4(5H)-one]",cells with active caspase 10,[8],did not show any effect
same,cells with active caspase 9,[9],did not show any effect
